This test deals with T1, cholesterol oxidase from Streptomyces aegyptia NEAE 102.
T1 construct: gene choA; native extracellular enzyme purified from culture supernatant (ammonium sulfate, DEAE Sepharose CL-6B); 46 kDa by SDS-PAGE
Put plainly: peroxidase-coupled H2O2 assay (4-aminoantipyrine/phenol, […] nm); Michaelis-Menten nonlinear regression. In kind it is biochemical. Particulars: pH 7.0 potassium phosphate, 37 °C, Triton X-100; O2 as co-substrate.

Each structure is given as a SMILES string.

For the compound `CC(C)CCC[C@@H](C)[C@H]1CC[C@H]2[C@@H]3CC=C4C[C@@H](O)CC[C@]4(C)[C@H]3CC[C@]12C` [cholesterol], the Km was determined as 152 µM.

As a reminder, the Km is the concentration of substrate that gives half-maximal velocity.
